Key:
HO1 [1] = test: Daunorubicin-responsive HO1 upregulation, U937 (Western blot); type: cell-based, human; details: U937, various concentrations of DNR, 24 h (FIG. 9a)
Experimental: (§1) THP-1 and U937 cells (4×10^5 cells mL^−1) were seeded and cultured in complete medium with various concentrations of DNR for 24 h. The cells were lysed using RIPA buffer and total protein was used for immunodetection by using anti-human HO1 and kactin antibodies (Cell Signaling Technology, Danvers, Mass., USA).

HO1 [2] = test: Daunorubicin-responsive HO1 upregulation, THP-1 (Western blot); type: cell-based, human; details: THP-1, various concentrations of DNR, 24 h (FIG. 9a)
Experimental: as §1

COc1cccc2c1C(=O)c1c(O)c3c(c(O)c1C2=O)C[C@@](O)(C(C)=O)C[C@@H]3O[C@H]1C[C@H](N)[C@H](O)[C@H](C)O1 [DNR, daunorubicin]
HO1 expression (HO1 [1]): overexpressed
HO1 expression (HO1 [2]): overexpressed

— US20210379197A1, “DUAL-TARGETING LIPID-POLYMER HYBRID NANOPARTICLES” (IUCF-HYU (INDUSTRY-UNIVERSITY COOPERATION FOUNDATION …, priority 2020, published 2021)
